pIC50: −log10 of the molar value.
How the values were obtained:
[1] = target: T1, MMP-8 (Homo sapiens, UniProt P22894); assay: In vitro MMP-8 inhibition test; type: biochemical; details: human MMP-8
T1 construct: purchased R&D Systems 908-MP
Source text: (§1) The MMP-mediated amidolytic cleavage of a suitable peptide substrate leads to an increase in fluorescent light here too. The signal intensity of the fluorescent light is directly proportional to the enzyme activity. The active concentration of a test compound at which half the enzyme is inhibited (50% signal intensity of the fluorescent light) is reported as the IC50 value.
(§2) Recombinant MMP-8 (R&D Systems, 908-MP) is chemically activated in accordance with the manufacturer's instructions using APMA. 1 μl of the test compound to be analysed (as a solution in DMSO, suitable concentrations e.g. 1 nM to 30 μM) is pipetted into 24 μl of activated enzyme (final concentration e.g. 0.5 nM) in reaction buffer (50 mM Tris/HCl pH 7.5, 10 mM CaCl2, 150 mM NaCl, 0.05% Brij®-35) in a white 384-hole microtiter plate (MTP). The enzymatic reaction is started by adding the intramolecularly quenched Mca-Pro-Leu-Gly-Leu-Dpa(Dnp)-Ala-Arg-NH2 substrate (final concentration e.g. 10 μM; R&D Systems, ES-001), so as to result in a total test volume of 50 μl. The course of the MMP-8 reaction is measured by measuring the fluorescence intensity (excitation 320 nm, emission 410 nm) over a suitable period of time (e.g. over 120 min at a temperature of 32° C.).

[2] = target: T2, MMP-10 (Homo sapiens, UniProt P09238); assay: In vitro MMP-10 inhibition test; type: biochemical; details: human MMP-10
T2 construct: purchased R&D Systems 910-MP
T2 sequence (P09238 99-476): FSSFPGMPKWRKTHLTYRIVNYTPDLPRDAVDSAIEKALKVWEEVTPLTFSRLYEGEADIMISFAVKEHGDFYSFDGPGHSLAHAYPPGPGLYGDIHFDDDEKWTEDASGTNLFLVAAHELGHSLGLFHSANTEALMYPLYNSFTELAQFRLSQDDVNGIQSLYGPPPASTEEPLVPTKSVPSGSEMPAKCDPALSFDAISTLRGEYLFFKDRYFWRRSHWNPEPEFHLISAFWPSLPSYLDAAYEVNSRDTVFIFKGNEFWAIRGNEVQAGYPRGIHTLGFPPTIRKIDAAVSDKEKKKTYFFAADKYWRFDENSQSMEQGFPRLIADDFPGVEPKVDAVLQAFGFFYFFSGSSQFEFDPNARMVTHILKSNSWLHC
Source text: as §1
as §2, with “MMP-10” for “MMP-8”, “910-MP)” for “908-MP)”, “2” for “0.5”, “Mca-Arg-Pro-Lys-Pro-Val-Glu-Nval-Trp-Arg-Lys(Dnp)-NH2” for “Mca-Pro-Leu-Gly-Leu-Dpa(Dnp)-Ala-Arg-NH2”, “ES-002),” for “ES-001),”

[3] = target: T3, MMP-14 (Homo sapiens, UniProt P50281); assay: In vitro MMP-14 inhibition test; type: biochemical; details: human MMP-14
T3 construct: purchased R&D Systems 918-MP
Source text: as §1
Recombinant MMP-14 (R&D Systems, 918-MP) is enzymatically activated in accordance with the manufacturer's instructions using recombinant furin (R&D Systems, 1503-SE). 1 μl of the test compound to be analysed (as a solution in DMSO, suitable concentrations e.g. 1 nM to 30 μM) is pipetted into 24 μl of activated enzyme (final concentration e.g. 0.5 nM) in reaction buffer (50 mM Tris/HCl pH 7.5, 10 mM CaCl2, 150 mM NaCl, 0.05% Brij®-35) in a white 384-hole microtiter plate (MTP). The enzymatic reaction is started by adding the intramolecularly quenched Mca-Lys-Pro-Leu-Gly-Leu-Dpa(Dnp)-Ala-Arg-NH2 substrate (final concentration e.g. 5 μM; R&D Systems, ES-010), so as to result in a total test volume of 50 μl. The course of the MMP-14 reaction is measured by measuring the fluorescence intensity (excitation 320 nm, emission 410 nm) over a suitable period of time (e.g. over 120 min at a temperature of 32° C.).

[4] = tested on: rat hepatocytes; assay: Hepatocyte assay for determination of metabolic stability; type: in vitro ADME; details: after incubation with rat hepatocytes
Procedure: The metabolic stability of test compounds towards hepatocytes is determined by incubating the compounds at low concentrations (preferably below or around 1 μM) and at low cell counts (preferably at 1*10^6 cells/ml) in order to ensure maximum linearity of kinetic conditions in the experiment. Seven samples from the incubation solution are taken for the LC-MS analysis within a fixed time pattern, in order to determine the half-life (i.e. the degradation) of the particular compound. This half-life is used to calculate various “Clearance” parameters (CL) and “Fmax” values (see below).
The CL and Fmax values are a measure of the phase 1 and phase 2 metabolism of the compounds in the hepatocytes. In order to minimize the influence of the organic solvent on the enzymes in the incubation batches, the concentration thereof is generally limited to 1% (acetonitrile) or 0.1% (DMSO).
For all species and breeds, a hepatocyte cell count in the liver of 1.1*10^8 cells/g of liver is expected.

T1 sequence (P22894 101-467): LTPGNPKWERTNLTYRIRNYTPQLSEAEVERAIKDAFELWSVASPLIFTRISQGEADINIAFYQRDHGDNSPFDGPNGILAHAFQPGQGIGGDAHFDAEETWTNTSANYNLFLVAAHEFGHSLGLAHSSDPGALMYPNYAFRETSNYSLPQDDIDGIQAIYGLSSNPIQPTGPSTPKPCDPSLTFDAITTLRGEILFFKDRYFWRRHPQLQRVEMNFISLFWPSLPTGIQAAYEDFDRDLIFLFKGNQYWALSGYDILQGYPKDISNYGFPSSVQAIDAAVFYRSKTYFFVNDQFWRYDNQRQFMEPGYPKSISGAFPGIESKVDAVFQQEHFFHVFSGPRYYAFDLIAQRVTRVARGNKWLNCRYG

| SMILES | pIC50 [1] | pIC50 [2] | pIC50 [3] | CLblood (calculated blood clearance, well-stirred) [4] [mL/min/kg] | Fmax (maximum possible bioavailability after oral administration, well-stirred) [4] [%] |
| --- | --- | --- | --- | --- | --- |
| O=C(CC(CCn1nnc2ccccc2c1=O)C(=O)O)c1cc2cc(OCC3CCOCC3)ccc2o1 (racemic) [Example 5, (+/−)-4-Oxo-2-[2-(4-oxo-1,2,3-benzotriazin-3(4H)-yl)ethyl]-4-[5-(tetrahydro-2H-pyran-4-ylmethoxy)-1-benzofur-2-yl]butanoic acid] | 5.11 | 4.47 | 4.47 | 27 | 61.4 |
| O=C(CC(CCn1nnc2ccccc2c1=O)C(=O)O)c1cc2cc(OCCc3ccccc3)ccc2o1 (single isomer, unassigned; (+)) [Example 21, (+)-4-Oxo-2-[2-(4-oxo-1,2,3-benzotriazin-3(4H)-yl)ethyl]-4-[5-(2-phenylethoxy)-1-benzofur-2-yl]butanoic acid] | 4.85 | 4.89 | 4.52 |  |  |
| O=C(CC(CCn1nnc2ccccc2c1=O)C(=O)O)c1cc2cc(OCc3ccc(F)cc3)ccc2o1 (single isomer, unassigned; (+)) [Example 23, (+)-4-{5-[(4-Fluorobenzyl)oxy]-1-benzofur-2-yl}-4-oxo-2-[2-(4-oxo-1,2,3-benzotriazin-3(4H)-yl)ethyl]butanoic acid] | 5.20 | 4.96 | 4.82 |  |  |
| O=C(CC(CCn1nnc2ccccc2c1=O)C(=O)O)c1cc2cc(OCc3ccccc3)ccc2o1 (single isomer, unassigned; (+)) [Example 30, (+)-4-[5-(Benzyloxy)-1-benzofur-2-yl]-4-oxo-2-[2-(4-oxo-1,2,3-benzotriazin-3(4H)-yl)ethyl]butanoic acid] | 4.49 | 4.52 | 4.51 |  |  |
| NC(=O)c1cccc(COc2ccc3oc(C(=O)CC(CCn4nnc5ccccc5c4=O)C(=O)O)cc3c2)c1 (single isomer, unassigned; (+)) [Example 34, (+)-4-{5-[(3-Carbamoylbenzyl)oxy]-1-benzofur-2-yl}-4-oxo-2-[2-(4-oxo-1,2,3-benzotriazin-3(4H)-yl)ethyl]butanoic acid] | 5.31 | 4.85 | 5.10 |  |  |
| CCCCCCCOc1ccc2cc(C(=O)CC(CCn3nnc4ccccc4c3=O)C(=O)O)oc2c1 (single isomer, unassigned; (+)) [Example 69, (+)-4-[6-(Heptyloxy)-1-benzofur-2-yl]-4-oxo-2-[2-(4-oxo-1,2,3-benzotriazin-3(4H)-yl)ethyl]butanoic acid acid] | < 4.40 | 4.55 | < 4.40 |  |  |
| O=C(CC(CCn1nnc2ccccc2c1=O)C(=O)O)c1cc2cc(OCCCC(F)(F)F)ccc2o1 (single isomer, unassigned; enantiomer 2) [Example 13, (+)-4-Oxo-2-[2-(4-oxo-1,2,3-benzotriazin-3(4H)-yl)ethyl]-4-[5-(4,4,4-trifluorobutoxy)-1-benzofur-2-yl]butanoic acid (enantiomer 2)] | 5.30 | 4.82 | 4.77 |  |  |

Stronger by pIC50 [1], values ahead:

| pIC50 [1] | pIC50 [2] | pIC50 [3] | CLblood (calculated blood clearance, well-stirred) [4] [mL/min/kg] | Fmax (maximum possible bioavailability after oral administration, well-stirred) [4] [%] | SMILES |
| --- | --- | --- | --- | --- | --- |
| 5.55 | 4.55 | 5.03 |  |  | O=C(CC(CCn1nnc2ccccc2c1=O)C(=O)O)c1onc2cc(OCc3ccccc3)ccc12 (racemic) [Example 156, (+/−)-4-[6-(Benzyloxy)-2,1-benzoxazol-3-yl]-4-oxo-2-[2-(4-oxo-1,2,3-benzotriazin-3(4H)-yl)ethyl]butanoic acid] |
| 5.55 | 4.96 | 5.40 |  |  | CCCCCCOc1ccc2c(C(=O)CC(CCn3nnc4ccccc4c3=O)C(=O)O)coc2c1 (single isomer, unassigned; (+)) [Example 100, (+)-4-[6-(Hexyloxy)-1-benzofur-3-yl]-4-oxo-2-[2-(4-oxo-1,2,3-benzotriazin-3(4H)-yl)ethyl]butanoic acid] |
| 5.77 | 4.85 | 5.26 |  |  | O=C(CC(CCn1nnc2ccccc2c1=O)C(=O)O)c1noc2cc(OCC3CCCCC3)ccc12 (racemic) [Example 153, (+/−)-4-[6-(Cyclohexylmethoxy)-1,2-benzoxazol-3-yl]-4-oxo-2-[2-(4-oxo-1,2,3-benzotriazin-3(4H)-yl)ethyl]butanoic acid] |
| 6.03 | 5.33 | 5.40 |  |  | CCCCCOc1ccc2c(C(=O)CC(CCn3nnc4ccccc4c3=O)C(=O)O)coc2c1 (single isomer, unassigned) [Example 91, 4-Oxo-2-[2-(4-oxo-1,2,3-benzotriazin-3(4H)-yl)ethyl]-4-[6-(pentyloxy)-1-benzofur-3-yl]butanoic acid] |
| 6.24 | 5.17 | 5.60 |  |  | O=C(CC(CCn1nnc2ccccc2c1=O)C(=O)O)c1coc2cc(OCC3CCCCC3)ccc12 (single isomer, unassigned; (+)) [Example 82, (+)-4-[6-(Cyclohexylmethoxy)-1-benzofur-3-yl]-4-oxo-2-[2-(4-oxo-1,2,3-benzotriazin-3(4H)-yl)ethyl]butanoic acid] |
| 6.36 | 4.92 | 5.72 |  |  | O=C(CC(CCn1nnc2ccccc2c1=O)C(=O)O)c1coc2cc(OCC3CCCC3)ccc12 (single isomer, unassigned; (+)) [Example 80, (+)-4-[6-(Cyclopentylmethoxy)-1-benzofur-3-yl]-4-oxo-2-[2-(4-oxo-1,2,3-benzotriazin-3(4H)-yl)ethyl]butanoic acid] |
| 6.40 | < 4.40 | 6.05 |  |  | O=C(CC(CCn1nnc2ccccc2c1=O)C(=O)O)c1noc2cc(OCC3CC3)ccc12 (racemic) [Example 150, (+/−)-4-[6-(Cyclopropylmethoxy)-1,2-benzoxazol-3-yl]-4-oxo-2-[2-(4-oxo-1,2,3-benzotriazin-3(4H)-yl)ethyl]butanoic acid] |
| 6.57 | 6.70 | 5.07 |  |  | O=C(CC(CCn1nnc2ccccc2c1=O)C(=O)O)c1noc2cc(OCc3cccnc3)ccc12 (racemic) [Example 148, (+/−)-4-Oxo-2-[2-(4-oxo-1,2,3-benzotriazin-3(4H)-yl)ethyl]-4-[6-(pyridin-3-ylmethoxy)-1,2-benzoxazol-3-yl]butanoic acid] |
| 6.82 | 6.72 | 6.15 |  |  | O=C(O)[C@H]1[C@H](Cn2nnc3ccc(C(F)(F)F)cc3c2=O)CC[C@@H]1C(=O)c1cc2cc(OCCc3ccccc3)ccc2o1 (racemic) [Example 157, (+/−)-(1RS,2SR,5RS)-2-{[4-Oxo-6-(trifluoromethyl)-1,2,3-benzotriazin-3(4H)-yl]methyl}-5-{[5-(2-phenylethoxy)-1-benzofur-2-yl]carbonyl}cyclopentanecarboxylic acid (racemate)] |
